In patent publication US8492346B2, “Methods of use of epsilon inhibitor compounds for the attenuation of pain” (KAI Pharmaceuticals, Inc., priority 2007, dated 2013):
Where no end group is shown, it is not given here.

Key:
[1] = Chemical stability of cargo/carrier peptide constructs; assay type: physicochemical
Protocol: (§1) The plasma and chemical stability of various cargo/carrier peptide constructs described in Example 1 was tested. Plasma stability of the compounds was tested using both human and rat sera and the amount of starting material was determined after 30 minutes of treatment. Chemical stability was evaluated by determining the amount of starting material remaining after 9 days of treatment.
The chemical stability of various cargo/carrier peptide constructs described in Example 1 was tested by examining the relative concentration of the peptides over a time period of more than 200 hours at 37° C.

[2] = Plasma stability in rat sera; assay type: in vitro ADME; settings: 30 minutes
Protocol: as §1
(§2) The plasma stability of various cargo/carrier peptide constructs described in Example 1 was tested using both human and rat sera and the amount of starting material was determined over time to 30 minutes of treatment. The time course data for cargo/carrier peptides KP-1586, KP-1630, and KP-1631 is shown in FIG. 3, the data for peptides KP-1632, KP-1633, and KP-1634 is shown in FIG. 4, and the data for peptides KP-1635, KP-1636, and KP-1637 is shown in FIG. 5.

[3] = Plasma stability in human sera; assay type: in vitro ADME; settings: for remaining at 0.5 h: plasma, human sera, 30 minutes
Protocol: as §1, §2

[4] = test system: carrageenan-induced mechanical hyperalgesia; experiment: Carrageenan inflammatory pain model, Randall-Selitto paw-withdrawal test; assay type: in vivo, rat
Protocol: (§3) The nociceptive flexior reflex was quantified on lightly restrained rats by using a Basile Analgesymeter (Randall-Selitto test). Inflammatory hyperlagesia was induced by injection of Carr (1%, 5 uL, i.d.), which was injected unilaterally to the dorsum of the hindpaw one-hour prior to compound administration. The εPKC inhibitor peptide (εV1-2) was injected via systemic routes.
as §3, with “μL,” for “uL,”, “one-hr” for “one-hour”
The rat carrageenan model has been extensively used to evaluate the response to modulators of inflammatory pain. In the model used for the studies described below, a single 5 microL injection of a 1% solution of carrageenan into the plantar surface of the right hindpaw was used to elicit an inflammatory response resulting in local edema and mechanical hyperalgesia. The mechanical hyperalgesia was quantitated as previously described using measurements of the nociceptive flexion reflex (Randall-Selitto paw-withdrawal test) in response to mechanical painful stimulation at the site of carrageenan injection. […] In the absence of further treatment, the PWT remained stable at ˜55 g for several hours, making it possible to use this model to evaluate the time-course of the response to treatment over the course of at least six hours after the establishment of the disease state.

## EAVSLKPTGGYGRKKRRQRRR-NH2 [KP-1633, E-A-V-S-L-K-P-T-G-G-TaT-NH2]
[1]; 9 days of treatment
  remaining at 216 h: 99%
[2]
  remaining at 0.5 h: 77%
[3]
  remaining at 0.5 h: 83%

## CC(=O)N[C@@H](CSSC[C@H](NC(C)=O)C(=O)N[C@@H](CCC(=O)O)C(=O)N[C@@H](C)C(=O)N[C@H](C(=O)N[C@@H](CO)C(=O)N[C@@H](CC(C)C)C(=O)N[C@@H](CCCCN)C(=O)N1CCC[C@H]1C(=O)N[C@H](C(N)=O)[C@@H](C)O)C(C)C)C(=O)N[C@@H](Cc1ccc(O)cc1)C(=O)NCC(=O)N[C@@H](CCCNC(=N)N)C(=O)N[C@@H](CCCCN)C(=O)N[C@@H](CCCCN)C(=O)N[C@@H](CCCNC(=N)N)C(=O)N[C@@H](CCCNC(=N)N)C(=O)N[C@@H](CCC(N)=O)C(=O)N[C@@H](CCCNC(=N)N)C(=O)N[C@@H](CCCNC(=N)N)C(=O)N[C@@H](CCCNC(=N)N)C(N)=O [KP-1630, Ac-C-E-A-V-S-L-K-P-T-NH2]
[1]; 9 days of treatment
  remaining at 216 h: 67%
[2]
  remaining at 0.5 h: 77%
[3]; human and rat sera, FIGS. 3-5
  Plasma stability, time course to 30 minutes: little impact on plasma stability
[3]
  remaining at 0.5 h: 76%

## COc1ccc2c(c1)c(CC(=O)O)c(C)n2C(=O)c1ccc(Cl)cc1 [indomethacin, reference compound]
[4]; oral, 10 mg/kg, after end of 5-hr IV infusion of KAI-1678
  Carrageenan-induced mechanical hyperalgesia: completely reversed the mechanical hyperalgesia

## CC(=O)N[C@@H](CCSSCC[C@H](NC(C)=O)C(=O)N[C@@H](CCC(=O)O)C(=O)N[C@@H](C)C(=O)N[C@H](C(=O)N[C@@H](CO)C(=O)N[C@@H](CC(C)C)C(=O)N[C@@H](CCCCN)C(=O)N1CCC[C@H]1C(=O)N[C@H](C(N)=O)[C@@H](C)O)C(C)C)C(=O)N[C@@H](Cc1ccc(O)cc1)C(=O)NCC(=O)N[C@@H](CCCNC(=N)N)C(=O)N[C@@H](CCCCN)C(=O)N[C@@H](CCCCN)C(=O)N[C@@H](CCCNC(=N)N)C(=O)N[C@@H](CCCNC(=N)N)C(=O)N[C@@H](CCC(N)=O)C(=O)N[C@@H](CCCNC(=N)N)C(=O)N[C@@H](CCCNC(=N)N)C(=O)N[C@@H](CCCNC(=N)N)C(=O)O [KP-1638, Ac-hC-E-A-V-S-L-K-P-T-NH2]
[1]; 9 days of treatment
  remaining at 216 h: 100%

## E-A-V-S-L-K-P-T (EAVSLKPT) [εV1-2]
[4]; bilateral lumbar sympathectomy plus suprarenal ganglionectomy 7 days before
  Anti-hyperalgesic effect after surgical sympathectomy: completely abolished anti-hyperalgesic effects
[4]; intradermal and subcutaneous injection, FIG. 14
  Paw-withdrawal threshold (PWT): Increases in paw-withdrawal threshold (PWT)
[4]; subcutaneous injection, ipsilateral or contralateral hindlimb or dorsal trunk
  Carr-induced mechanical hyperalgesia: dose-dependently suppressed Carr-induced mechanical hyperalgesia
[4]; subcutaneous, distal to transection of sciatic and saphenous nerves, contralateral paw
  Carr-induced mechanical hyperalgesia after nerve transection: no longer suppression of Carr-induced mechanical hyperalgesia

## CC(=O)N[C@@H](CSSC[C@H](N)C(=O)N[C@@H](CCC(=O)O)C(=O)N[C@@H](C)C(=O)N[C@H](C(=O)N[C@@H](CO)C(=O)N[C@@H](CC(C)C)C(=O)N[C@@H](CCCCN)C(=O)N1CCC[C@H]1C(=O)N[C@H](C(=O)O)[C@@H](C)O)C(C)C)C(=O)N[C@@H](Cc1ccc(O)cc1)C(=O)NCC(=O)N[C@@H](CCCNC(=N)N)C(=O)N[C@@H](CCCCN)C(=O)N[C@@H](CCCCN)C(=O)N[C@@H](CCCNC(=N)N)C(=O)N[C@@H](CCCNC(=N)N)C(=O)N[C@@H](CCC(N)=O)C(=O)N[C@@H](CCCNC(=N)N)C(=O)N[C@@H](CCCNC(=N)N)C(=O)N[C@@H](CCCNC(=N)N)C(N)=O [KP-1586, C-E-A-V-S-L-K-P-T]
[1]; 9 days of treatment
  remaining at 216 h: 57%
[2]
  remaining at 0.5 h: 77%
[3]
  remaining at 0.5 h: 85%

## CC(=O)N[C@@H](CSSC[C@@H](NC(=O)[C@@H](CCC(=O)O)NC(=O)[C@@H](C)NC(=O)[C@H](NC(=O)[C@@H](CO)NC(=O)[C@@H](CC(C)C)NC(=O)[C@@H](CCCCN)NC(=O)[C@H]1CCCN1C(=O)[C@H](N)[C@H](C)O)C(C)C)C(=O)O)C(=O)N[C@@H](Cc1ccc(O)cc1)C(=O)NCC(=O)N[C@@H](CCCNC(=N)N)C(=O)N[C@@H](CCCCN)C(=O)N[C@@H](CCCCN)C(=O)N[C@@H](CCCNC(=N)N)C(=O)N[C@@H](CCCNC(=N)N)C(=O)N[C@@H](CCC(N)=O)C(=O)N[C@@H](CCCNC(=N)N)C(=O)N[C@@H](CCCNC(=N)N)C(=O)N[C@@H](CCCNC(=N)N)C(N)=O [KP-1635, t-p-k-l-s-v-a-e-c]
[1]; 9 days of treatment
  remaining at 216 h: 95%
[2]
  remaining at 0.5 h: 72%
[3]
  remaining at 0.5 h: 63%

## CC(=O)N[C@@H](CCSSC[C@H](NC(C)=O)C(=O)N[C@@H](CCC(=O)O)C(=O)N[C@@H](C)C(=O)N[C@H](C(=O)N[C@@H](CO)C(=O)N[C@@H](CC(C)C)C(=O)N[C@@H](CCCCN)C(=O)N1CCC[C@H]1C(=O)N[C@H](C(N)=O)[C@@H](C)O)C(C)C)C(=O)N[C@@H](Cc1ccc(O)cc1)C(=O)NCC(=O)N[C@@H](CCCNC(=N)N)C(=O)N[C@@H](CCCCN)C(=O)N[C@@H](CCCCN)C(=O)N[C@@H](CCCNC(=N)N)C(=O)N[C@@H](CCCNC(=N)N)C(=O)N[C@@H](CCC(N)=O)C(=O)N[C@@H](CCCNC(=N)N)C(=O)N[C@@H](CCCNC(=N)N)C(=O)N[C@@H](CCCNC(=N)N)C(=O)O [KP-1637, Ac-C-E-A-V-S-L-K-P-T-NH2]
[1]; 9 days of treatment
  Chemical Stability % Remaining at 9 days: 100%
[1]; more than 200 hours at 37° C., FIG. 6
  Chemical stability, time course of relative concentration: marked stability
[2]
  remaining at 0.5 h: 78%
[3]
  remaining at 0.5 h: 60%

## CC(=O)N[C@@H](CSSC[C@H](NC(C)=O)C(=O)N[C@@H](CC(C)C)C(=O)N[C@@H](CCCCN)C(=O)N1CCC[C@H]1C(=O)N[C@H](C(=O)N[C@@H](C)C(=O)N[C@@H](Cc1c[nH]c2ccccc12)C(=O)N[C@@H](CO)C(=O)N[C@@H](CC(C)C)C(=O)N[C@@H](CCCNC(=N)N)C(N)=O)[C@@H](C)O)C(=O)N[C@@H](Cc1ccc(O)cc1)C(=O)NCC(=O)N[C@@H](CCCNC(=N)N)C(=O)N[C@@H](CCCCN)C(=O)N[C@@H](CCCCN)C(=O)N[C@@H](CCCNC(=N)N)C(=O)N[C@@H](CCCNC(=N)N)C(=O)N[C@@H](CCC(N)=O)C(=O)N[C@@H](CCCNC(=N)N)C(=O)N[C@@H](CCCNC(=N)N)C(=O)N[C@@H](CCCNC(=N)N)C(N)=O [KP-1631, Ac-C-L-K-P-T-A-W-S-L-R-NH2]
[1]; 9 days of treatment
  remaining at 216 h: 76%
[2]
  remaining at 0.5 h: 67%
[3]
  remaining at 0.5 h: 49%

## CC(C)C[C@H](NC(=O)[C@H](CO)NC(=O)[C@@H](NC(=O)[C@H](C)NC(=O)[C@H](CCC(=O)O)NC(=O)[C@@H](N)CSSC[C@H](N)C(=O)N[C@@H](Cc1ccc(O)cc1)C(=O)NCC(=O)N[C@@H](CCCNC(=N)N)C(=O)N[C@@H](CCCCN)C(=O)N[C@@H](CCCCN)C(=O)N[C@@H](CCCNC(=N)N)C(=O)N[C@@H](CCCNC(=N)N)C(=O)N[C@@H](CCC(N)=O)C(=O)N[C@@H](CCCNC(=N)N)C(=O)N[C@@H](CCCNC(=N)N)C(=O)N[C@@H](CCCNC(=N)N)C(=O)O)C(C)C)C(=O)N[C@@H](CCCCN)C(=O)N1CCC[C@H]1C(=O)N[C@H](C(=O)O)[C@@H](C)O [KP-1636, C-E-A-V-S-L-K-P-T, reference compound]
[1]; 9 days of treatment
  remaining at 216 h: 27%
[2]
  remaining at 0.5 h: 79%
[3]
  remaining at 0.5 h: 79%

## CC(=O)N[C@@H](CSSC[C@H](NC(C)=O)C(=O)N[C@@H](CCC(=O)O)C(=O)N[C@@H](C)C(=O)N[C@H](C(=O)N[C@@H](CO)C(=O)N[C@@H](CC(C)C)C(=O)N[C@@H](CCCCN)C(=O)N1CCC[C@H]1C(=O)N[C@H](C(=O)N[C@@H](C)C(=O)N[C@@H](Cc1c[nH]c2ccccc12)C(=O)N[C@@H](CO)C(=O)N[C@@H](CC(C)C)C(=O)N[C@@H](CCCNC(=N)N)C(=O)O)[C@@H](C)O)C(C)C)C(=O)N[C@@H](Cc1ccc(O)cc1)C(=O)NCC(=O)N[C@@H](CCCNC(=N)N)C(=O)N[C@@H](CCCCN)C(=O)N[C@@H](CCCCN)C(=O)N[C@@H](CCCNC(=N)N)C(=O)N[C@@H](CCCNC(=N)N)C(=O)N[C@@H](CCC(N)=O)C(=O)N[C@@H](CCCNC(=N)N)C(=O)N[C@@H](CCCNC(=N)N)C(=O)N[C@@H](CCCNC(=N)N)C(N)=O [KP-1632, Ac-C-E-A-V-S-L-K-P-T-A-W-S-L-R]
[1]; 9 days of treatment
  remaining at 216 h: 89%
[2]
  remaining at 0.5 h: 61%
[3]
  remaining at 0.5 h: 54%
